Inconclusive results are not listed.
test system: D54 LucT luciferase reporter counterscreen, luminescence, 24 h; test: luciferase activators in glycosylation-insensitive reporter cells, dose response, counter-screen for N-linked glycosylation inhibitor project, D54 LucT cells, luminescence, cherry pick (AID 624404)

Compared with `Nc1nc(-c2ccccn2)nc(N)c1Cc1ccc(Cl)cc1Cl`, `Nc1[nH]nc2nc(NCc3ccccc3)c3c(c12)CCN(Cc1ccccc1)C3` is 1.9-fold higher in AC35: 1480 nM for the first, 2840 nM for the second.

First: O=C(NCc1cccs1)C1Cc2c(-c3ccc(Cl)cc3)ccnc2O1 (stereo unspecified)
Second: COc1ccc(C2=NOC(C(=O)NCc3cccs3)C2)cc1 (stereo unspecified)
The AC35 of the first is 6.9-fold lower: 166 nM for the first, 1140 nM for the second.

`Cc1cc(C)cc(-n2c3ccc(NC(=O)Cc4cccc5ccccc45)cc3c(=O)n2C)c1` and `Cc1ccc(C)c(NC(=S)NC(NC(=O)Cc2cccc3ccccc23)C(Cl)(Cl)Cl)c1` (stereo unspecified) are within 1.5-fold of each other in AC35: 5010 nM for the first, 3550 nM for the second.

Compared with `COc1ccc(CNC(=O)c2cccc3c(-c4cccnc4)coc23)cc1OC`, `COc1cc(NC(=O)c2ccccc2OCc2ccccc2)cc(OC)c1OC` is 2.4-fold lower in AC35: 2600 nM for the first, 1080 nM for the second.

Compared with `COc1cc(C(=O)Nc2cc3c(cc2N2CCCCC2)n(C)c(=O)n3C)cc(OC)c1OC`, `CCOc1ccc2[nH]c(C(=O)N/N=C/c3cc(OC)c(OC)c(OC)c3)cc2c1` is 34-fold higher in AC35: 96.4 nM for the first, 3270 nM for the second.

Compared with `CC(Nc1nc(-c2cccnc2)nc2ccccc12)c1ccccc1` (stereo unspecified), `Cn1c(-c2ccccc2)c(/C=N/NC(=O)c2cccnc2)c2ccccc21` is 6.1-fold lower in AC35: 1050 nM for the first, 171 nM for the second.

`CCCCn1c(SCc2c(C)noc2C)nc2cc(S(N)(=O)=O)ccc21` and `Cc1ccc(S(=O)(=O)Nc2ccc3c(c2)n(C)c(=O)n3C)cc1` are within 1.5-fold of each other in AC35: 680 nM for the first, 694 nM for the second.

`O=c1cc(-c2ccccc2)[nH]c2cc(F)ccc12` and `O=c1cc(-c2ccccc2)nc2cc(-c3ccc(F)cc3)[nH]n12` are within 1.5-fold of each other in AC35: 2380 nM for the first, 2190 nM for the second.

Going from `COc1ccccc1-c1c(C#N)c(N)nc2c1CCc1ccccc1-2` to `COc1ccccc1N1CC(O)=C(c2nc3ccccc3c(=O)[nH]2)C1=N`, the AC35 rises from 1110 nM to 5720 nM (5.2-fold).

Going from `Cc1ccc(-n2c(SCC(=O)NCCC3=CCCCC3)nc3n[nH]c(C)c3c2=N)cc1Cl` to `COCCCNC(=O)c1sc2ncn(CC(=O)Nc3ccc(C)c(Cl)c3)c(=O)c2c1C`, the AC35 rises from 39.9 nM to 2510 nM (63-fold).

`CC1CN(C(=O)c2cc(-c3ccncc3)nc3ccccc23)CC(C)O1` (stereo unspecified) and `Cc1ccc2nc(-c3ccccc3)cc(C(=O)N3CC(C)OC(C)C3)c2c1` (stereo unspecified) are within 1.5-fold of each other in AC35: 1720 nM for the first, 1920 nM for the second.

Going from `COc1cc(-c2nc(-c3ccccc3)c(-c3cccs3)[nH]2)cc(OC)c1OC` to `COc1cc(-c2cc3nc(NCCc4ccncc4)ccn3n2)cc(OC)c1OC`, the AC35 falls from 7050 nM to 806 nM (8.7-fold).

Going from `COC(=O)c1c(NC(=O)c2cccnc2Cl)sc(C(=O)N(C)C)c1C` to `CN1C(=O)CSc2ccc(NC(=O)Nc3ccccn3)cc21`, the AC35 falls from 1380 nM to 828 nM (1.7-fold).

`COc1cccc(/C=C2\SC(=S)N(CCC(=O)N3CCCCC3)C2=O)c1` and `CCOc1ccc(/C=C2\SC(N3CCCCC3)=NC2=O)cc1` are within 1.5-fold of each other in AC35: 4370 nM for the first, 5570 nM for the second.

First: O=C(NCCN1C(=O)S/C(=C\c2ccc(Cl)cc2Cl)C1=O)C1=COCCO1
Second: O=C(Nc1ccc(S(=O)(=O)N2CCOCC2)cc1)c1cc(-c2cc(Cl)ccc2O)n[nH]1
The AC35 of the first is 2.5-fold higher: 3410 nM for the first, 1370 nM for the second.

Going from `O=C(CSc1nnc(-c2cc3ccccc3cc2O)n1Cc1ccco1)N1CCc2ccccc2C1` to `O=C(c1ccccc1-c1ccccc1)N1CCN(c2ccccn2)CC1`, the AC35 rises from 1280 nM to 2040 nM (1.6-fold).

`COc1ccc2[nH]c(C(=O)N3CCN(Cc4ccccc4)CC3)cc2c1OC` and `Cc1ccc(C(=O)N2CCN(Cc3ccccc3)CC2)cc1S(=O)(=O)N1CCOCC1` are within 1.5-fold of each other in AC35: 2980 nM for the first, 2960 nM for the second.

`CCOC(=O)c1[nH]c2c(c1-c1ccccc1)C(=O)CC(c1ccccc1)C2` (stereo unspecified) and `COC(=O)[C@@H]1C[C@H]1[C@@H](NP(=O)(c1ccccc1)c1ccccc1)c1ccccc1` are within 1.5-fold of each other in AC35: 2690 nM for the first, 3100 nM for the second.

Compared with `Cc1ccc2c(c1)[C@H]1[C@H](CO2)[C@H](c2ccccc2)[C@]2(C)C(=O)Nc3ccc(Br)cc3C(=O)N12`, `COc1ccc2c(c1)OC[C@H]1[C@H]2N2C(=O)c3cc(Br)ccc3NC(=O)[C@@]2(C)[C@H]1c1ccccc1` is 1.9-fold lower in AC35: 1760 nM for the first, 944 nM for the second.

Compared with `NC(=O)CC(NC(=O)Cc1ccc(Br)cc1)c1ccc(NC2CCC2)c([N+](=O)[O-])c1` (stereo unspecified), `NNC(=O)c1ccc2nc(-c3ccc(Br)cc3)cn2c1` is 2.2-fold lower in AC35: 1710 nM for the first, 780 nM for the second.

Compared with `O=C(N/N=C/c1ccc(F)cc1)c1sccc1OCc1ccc(F)cc1`, `COc1cc(F)ccc1-c1csc(C(NC(C)=O)c2cccc(F)c2)n1` (stereo unspecified) is 17-fold lower in AC35: 1580 nM for the first, 93.1 nM for the second.

`CCN1C(=O)CCN(C2CCCC2)c2nc(Nc3ccc(C(=O)NC4CCN(C)CC4)cc3OC)ncc21` and `COc1ccc(CCn2c(=N)c(C(=O)NCC3CCCO3)cc3c(=O)n4cccc(C)c4nc32)cc1OC` (stereo unspecified) are within 1.5-fold of each other in AC35: 226 nM for the first, 154 nM for the second.

Going from `Cc1ccc2nc(-c3ccncc3)cc(C(=O)Nc3ccncc3)c2c1` to `CS(=O)(=O)c1cccc(C(=O)Nc2ccc(-c3nc4ccccc4[nH]3)cc2)c1`, the AC35 rises from 64.6 nM to 3750 nM (58-fold).

`CCCNc1nc2ccccc2n2c(C)nnc12` and `CCCOc1ccc2ccccc2c1/C=N/n1c(C)nnc1-n1nc(C)cc1C` are within 1.5-fold of each other in AC35: 19.1 nM for the first, 18.4 nM for the second.

First: Cc1nc(N=C(N)N)nc2c(C)cccc12
Second: COc1ccc(Nc2nc(-c3sc(C)nc3C)cs2)c(OC)c1
The AC35 of the first is 51-fold higher: 3820 nM for the first, 75 nM for the second.

Going from `C[C@H](CO)N1C[C@H](C)[C@@H](CN(C)S(=O)(=O)c2cccs2)Oc2c(NC(=O)Cc3ccccc3)cccc2C1=O` to `COc1ccc(CNCC(=O)Nc2ccccc2-n2cccc2)cc1`, the AC35 falls from 2960 nM to 62.9 nM (47-fold).

`COCCNC(=S)N1CCc2cc(OC)c(OC)cc2C1c1cccs1` (stereo unspecified) and `COc1ccc(N/C=C/C(=O)c2cc(OC)c(OC)c(OC)c2)cc1` are within 1.5-fold of each other in AC35: 352 nM for the first, 263 nM for the second.

Compared with `CCOC(=O)[C@H]1[C@H]2COc3ccc(OC)cc3[C@@H]2N2C(=O)c3cc(OC)c(OC)cc3NC(=O)[C@@]12C`, `COc1cc(-c2nccc3cc4c(cc23)OCO4)cc(OC)c1OC` is 49-fold lower in AC35: 3030 nM for the first, 61.7 nM for the second.

Going from `COc1ccc(-c2cc(C(F)F)n3ncc(C(=O)n4ccnc4C)c3n2)cc1` to `COc1ccc(OC)c(Nc2nc(-c3c(C)nc4ncccn34)cs2)c1`, the AC35 falls from 2770 nM to 1100 nM (2.5-fold).

First: C=CCn1c(O)c(C(CC)=NC(C)c2ccccc2)c(=O)[nH]c1=O (stereo unspecified)
Second: CC(C)CCNC(=O)CCCOc1cc(=O)n(C)c2ccccc12
The AC35 of the first is 2.1-fold lower: 1080 nM for the first, 2260 nM for the second.

Going from `CCOC(=O)c1sc(Nc2nc(C)cc(C)n2)nc1C` to `Cc1ccnc(NC(=O)CN2C(=O)NC(C)(c3ccc4ccccc4c3)C2=O)c1` (stereo unspecified), the AC35 falls from 1070 nM to 362 nM (3-fold).

`CCN(CC)S(=O)(=O)c1ccc(N2CCOCC2)c(NC(=O)c2[nH]c(C)c(C(C)=O)c2C)c1` and `CCN(CC)c1ccc(/C=N/n2nnnc2N)c(O)c1` are within 1.5-fold of each other in AC35: 330 nM for the first, 336 nM for the second.

`O=C(Nc1cccc2ncccc12)c1ccc([N+](=O)[O-])o1` and `O=C(Nc1ccccc1O)c1ccc(NS(=O)(=O)c2cccc3cccnc23)cc1` are within 1.5-fold of each other in AC35: 4570 nM for the first, 4410 nM for the second.

Going from `Cc1cccc([C@@H]2[C@@H]3C(=O)N(Cc4ccccc4)C(=O)[C@@H]3[C@]3(Cc4ccccc4)C(=O)N(c4cccc(F)c4)C(=O)N23)c1` to `CCc1ccc(N2C(=O)NC(=O)/C(=C\C=C\c3ccco3)C2=O)cc1`, the AC35 falls from 4360 nM to 1740 nM (2.5-fold).

Going from `O=C1OCC2=C1C(c1ccc3c(c1)OCO3)c1cc3c(cc1O2)OCO3` (stereo unspecified) to `COc1ccccc1NC(=O)/C=C/c1ccc2c(c1)OCO2`, the AC35 falls from 352 nM to 190 nM (1.9-fold).

First: CC(C)n1cc(NC(=O)c2cc(-c3ccccc3)on2)cn1
Second: CC(NC(=O)c1ccc2ccccc2n1)c1ccc(S(N)(=O)=O)cc1 (stereo unspecified)
The AC35 of the first is 1.7-fold lower: 568 nM for the first, 977 nM for the second.

First: Cc1ccc(-c2cc(C(=O)N3CC(C)OC(C)C3)c3ccccc3n2)o1 (stereo unspecified)
Second: CC(C)(C)c1ccc(C(=O)NNC(=O)c2cccc(Br)c2)cc1
The AC35 of the first is 1.7-fold lower: 2910 nM for the first, 5040 nM for the second.

First: CCCCC[C@H](O)/C=C/[C@@H]1[C@@H](C/C=C\CCCC(=O)OC)[C@@H](O)C[C@H]1O
Second: CC(=O)OC1CC[C@]2(C#N)[C@H]3CC[C@]4(C)[C@H](C5C=CC(=O)O5)CCC4(O)C3CCC2(O)C1 (stereo partly specified)
The AC35 of the first is lower: < 1.2 nM for the first, 2850 nM for the second.

From PubChem BioAssay AID624404 (Broad Institute, 2012)
